Measurements: the NIST ThermoML archive (doi:10.1021/je800110r)

Settings: 293.15 K, Liquid, Vibrating tube method

CCCCCCCCCC [decane]
Settings | mass density [kg/m3]
6746 kPa | 735.1
6773 kPa | 735
6794 kPa | 734.9
6816 kPa | 735
6848 kPa | 735
6876 kPa | 735
6897 kPa | 735
6922 kPa | 735.2
6945 kPa | 735.2
6978 kPa | 735.2
7001 kPa | 735
7028 kPa | 735.2
7050 kPa | 735.3
7069 kPa | 735.2
7097 kPa | 735.2
7122 kPa | 735.3
7137 kPa | 735.2
7168 kPa | 735.4
7187 kPa | 735.3
7209 kPa | 735.3
7232 kPa | 735.3
7257 kPa | 735.4
7276 kPa | 735.4
7295 kPa | 735.4
7318 kPa | 735.4
7338 kPa | 735.4
7360 kPa | 735.4
7390 kPa | 735.4
7414 kPa | 735.5
7438 kPa | 735.6
7460 kPa | 735.5
7485 kPa | 735.6
7500 kPa | 735.6
7514 kPa | 735.6
7532 kPa | 735.5
7544 kPa | 735.6
7559 kPa | 735.5
7573 kPa | 735.6
7586 kPa | 735.6
7603 kPa | 735.6
7621 kPa | 735.7
7636 kPa | 735.6
7649 kPa | 735.6
7665 kPa | 735.7
7685 kPa | 735.6
7701 kPa | 735.6
7716 kPa | 735.6
7732 kPa | 735.7
7748 kPa | 735.7
7769 kPa | 735.7
7789 kPa | 735.7
7803 kPa | 735.8
7824 kPa | 735.8
7837 kPa | 735.8
7854 kPa | 735.8
7873 kPa | 735.8
7889 kPa | 735.8
7910 kPa | 735.9
7929 kPa | 735.9
7943 kPa | 735.9
7963 kPa | 735.9
7982 kPa | 735.8
7997 kPa | 736
8013 kPa | 736.1
8030 kPa | 735.9
8048 kPa | 736
8065 kPa | 736
8080 kPa | 736
8102 kPa | 735.9
8114 kPa | 735.9
8137 kPa | 736.1
8160 kPa | 736
8178 kPa | 736.1
8196 kPa | 736
8213 kPa | 736.1
8234 kPa | 736.1
8249 kPa | 736.1
8265 kPa | 736.1
8289 kPa | 736.2
8309 kPa | 736.1
8324 kPa | 736.2
8342 kPa | 736.2
8357 kPa | 736.1
8373 kPa | 736.2
8396 kPa | 736.2
8414 kPa | 736.2
8435 kPa | 736.2
8456 kPa | 736.2
8469 kPa | 736.3
8490 kPa | 736.2
8512 kPa | 736.2
8530 kPa | 736.2
8552 kPa | 736.3
8577 kPa | 736.3
8591 kPa | 736.3
8615 kPa | 736.4
8638 kPa | 736.4
8657 kPa | 736.4
8679 kPa | 736.3
8696 kPa | 736.4
8715 kPa | 736.5
8735 kPa | 736.4
8752 kPa | 736.4
8777 kPa | 736.5
8801 kPa | 736.5
8818 kPa | 736.6
8844 kPa | 736.5
8867 kPa | 736.5
8885 kPa | 736.5
8905 kPa | 736.6
8925 kPa | 736.5
8946 kPa | 736.6
8967 kPa | 736.5
8985 kPa | 736.6
9006 kPa | 736.6
9033 kPa | 736.6
9054 kPa | 736.6
9077 kPa | 736.8
9098 kPa | 736.6
9119 kPa | 736.7
9137 kPa | 736.8
9159 kPa | 736.8
9178 kPa | 736.8
9206 kPa | 736.8
9235 kPa | 736.7
9251 kPa | 736.8
9280 kPa | 736.9
9302 kPa | 736.8
9324 kPa | 737
9350 kPa | 736.9
9370 kPa | 736.9
9397 kPa | 737
9426 kPa | 736.9
9446 kPa | 736.9
9469 kPa | 736.9
9492 kPa | 736.9
9512 kPa | 737
9533 kPa | 737
9562 kPa | 737.1
9590 kPa | 737
9615 kPa | 737.1
9642 kPa | 737.1
9666 kPa | 737.1
9687 kPa | 737.2
9718 kPa | 737.2
9743 kPa | 737.1
9767 kPa | 737.3
9799 kPa | 737.3
9821 kPa | 737.3
9853 kPa | 737.3
9871 kPa | 737.2
9897 kPa | 737.3
9920 kPa | 737.3
9953 kPa | 737.3
9986 kPa | 737.4
10009 kPa | 737.4
10042 kPa | 737.4
10073 kPa | 737.4
10096 kPa | 737.4
10134 kPa | 737.4
10165 kPa | 737.6
10193 kPa | 737.5
10218 kPa | 737.5
10248 kPa | 737.6
10278 kPa | 737.6
10298 kPa | 737.6
10313 kPa | 737.6
10327 kPa | 737.6
10344 kPa | 737.6
10358 kPa | 737.7
10372 kPa | 737.7
10389 kPa | 737.6
10406 kPa | 737.7
10428 kPa | 737.8
10443 kPa | 737.7
10461 kPa | 737.8
10481 kPa | 737.6
10498 kPa | 737.7
10516 kPa | 737.8
10533 kPa | 737.7
10550 kPa | 737.8
10570 kPa | 737.8
10587 kPa | 737.8
10602 kPa | 737.7
10625 kPa | 737.8
10645 kPa | 737.9
10661 kPa | 737.8
10679 kPa | 737.8
10697 kPa | 737.9
10715 kPa | 737.9
10735 kPa | 737.9
10753 kPa | 737.9
10768 kPa | 737.8
10787 kPa | 737.9
10803 kPa | 737.8
10824 kPa | 738
10842 kPa | 738
10860 kPa | 737.9
10879 kPa | 738.1
10892 kPa | 738
10913 kPa | 738
10929 kPa | 737.9
10950 kPa | 738.1
10966 kPa | 738
10985 kPa | 738.1
11001 kPa | 738.1
11023 kPa | 738.1
11045 kPa | 738.2
11061 kPa | 738.1
11081 kPa | 738.1
11094 kPa | 738.1
11111 kPa | 738.1
11131 kPa | 738.2
11156 kPa | 738.3
11170 kPa | 738.1
11193 kPa | 738.3
11210 kPa | 738.3
11235 kPa | 738.2
11255 kPa | 738.1
11281 kPa | 738.2
11304 kPa | 738.2
11324 kPa | 738.3
11348 kPa | 738.3
11366 kPa | 738.3
11387 kPa | 738.4
11408 kPa | 738.3
11425 kPa | 738.4
11443 kPa | 738.3
11460 kPa | 738.4
11479 kPa | 738.4
11492 kPa | 738.4
11511 kPa | 738.5
11524 kPa | 738.4
11543 kPa | 738.5
11560 kPa | 738.4
11574 kPa | 738.5
11596 kPa | 738.5
11613 kPa | 738.5
11628 kPa | 738.4
11645 kPa | 738.6
11664 kPa | 738.5
11684 kPa | 738.6
11701 kPa | 738.6
11721 kPa | 738.6
11740 kPa | 738.6
11758 kPa | 738.6
11775 kPa | 738.6
11793 kPa | 738.6
11810 kPa | 738.6
11828 kPa | 738.7
11845 kPa | 738.7
11861 kPa | 738.7
11888 kPa | 738.6
11904 kPa | 738.7
11927 kPa | 738.7
11950 kPa | 738.8
11966 kPa | 738.8
11987 kPa | 738.8
12010 kPa | 738.7
12028 kPa | 738.8
12049 kPa | 738.7
12070 kPa | 738.9
12089 kPa | 738.8
12110 kPa | 738.9
12131 kPa | 738.8
12152 kPa | 738.8
12170 kPa | 738.8
12187 kPa | 739
12201 kPa | 738.9
12219 kPa | 738.9
12238 kPa | 738.9
12263 kPa | 739.2
12285 kPa | 739
12301 kPa | 739
